Measurements from patent US20190134000A1, “COMPOUNDS TO PROMOTE NORMAL PROCESSING OF APP” (Buck Institute for Research on Aging, priority 2016, published 2019).
pIC50: −log10 of the molar value. “Also recorded” adds a separate entry of the source. Like-named read-outs stand apart in the source and are kept apart here.

What was measured:
[1] = system: sAPPα, Aβ1-42 in CHO-7W cells; experiment: Secondary screen, sAPPα and Aβ in CHO-7W cells; assay type: cell-based
From the text: Compound C41 was initially identified by screening a library of compounds in a series of steps. First compounds were screened in a primary screen to determine the effect on sAPPα in SH-SYSY cells (see, e.g., FIG. 4). Compounds that elicited an increase in sAPPα of at least 10% were subjected to a secondary screen in CHO-7W cells for their effect on sAPPα and Aβ (see, e.g., FIG. 5).

CYP2C9 = CYP2C9 (Homo sapiens, UniProt P11712); experiment: CYP inhibition screen CYP2C9; assay type: in vitro ADME
AD model mouse = experiment: In vivo study of C41 and F03 in an AD model mouse
From the text: Panel A: Novel object preference; Panel B: Novel location preference; Panel C: sAPPα.
Panel A: sAPPβ; Panel B: the sAPPα/sAPPβ ratio.
Compounds meeting the initial screening criteria were then subjected to in vivo testing.

CYP2D6 = CYP2D6 (Homo sapiens, UniProt P10635); experiment: CYP inhibition screen CYP2D6; assay type: in vitro ADME
[2] = Acute non-GLP toxicity study, oral 450 mg/kg; assay type: in vivo, rats; details: for concentration at 24 h: rat, in vivo
Method: Acute non-GLP toxicity study was performed using an oral dose of 450 mg/kg. At 24 hours post-dosing, brain levels were 2924 ng/g and plasma levels were 115 ng/ml.

in vitro = experiment: in vitro
Method: The second batch of C41 was tested for plasma protein binding, ADME-tox screening (microsomal intrinsic clearance), and ADME-tox screening (CYP inhibition screen). PK in rats was determined to determine a dose of non-GLP Pharm-Tox screening. Additionally, acute toxicity in rats (pre-subchronic toxicity) and non-GLP subchronic toxicity was determined.

S9 stability, dog = assay type: in vitro ADME
AD mouse model = experiment: Synaptic load, synaptophysin labeling of hippocampus; assay type: in vivo
Method: FIG. 16 illustrates mechanistic confirmation studies for determination of synaptic load.
Mechanistic confirmation studies for determination of synaptic load were performed using antibody-labeling of synaptophysin with a green fluorescent tag. […] The improvements in NLR and NOR may be correlated to the restoration of synaptic load, increases in sAPPα or the sAPPα/sAPPβ ratio; increases in the sAPPα/Aβ1-42 ratio; decreases in the p-tau/tau ratio, and/or decreases in APPneo (c-terminal cleavage).

AD model mice = experiment: Oral efficacy studies in mice; assay type: in vivo
From the text: Thus, C41 was identified as a good new chemical entity (NCE) based on the testing. In particular C41 in vitro and in vivo profile met the advancement criteria in SH-SYSY and CHO-7W in vitro screens.

in vivo = details: rat
Method: Top panel: Levels after oral delivery at 10 mk at 1, 8, and 24 hours; levels after oral delivery at 40 mk at 24 hours only. Bottom panel: IV delivery at 2.5 mk. Note brain levels in ng/g, plasma levels in ng/ml.
FIG. 13 illustrates C41 pharmacokinetic parameters in rat.
C41 pharmacokinetics were determined in a rat (see, FIG. 12, Table 9). […] Brain tissue was collected at 1, 8, and 24 hours. Plasma peak was 150 ng/ml and brain was 3251 ng/g. C41 peaked at 8 hours. […] Brain tissue was collected at 30 min, 6 hours, and 24 hours. Plasma peak was 564 ng/ml, at 1 minute and brain peak was 629 ng/g at 30 minutes. The 30 minute brain:plasma ratio was 8. Oral availability was determined to be about 100% (see, e.g. FIG. 13).

S9 stability, rat = assay type: in vitro ADME
α7 = α7 (Homo sapiens, UniProt P36544); experiment: Target binding α7
S9 stability, monkey = assay type: in vitro ADME
S9 stability, mouse = assay type: in vitro ADME
[3] = Panel binding test (Cerep broad screening panel)
S9 stability, guinea pig = assay type: in vitro ADME

Chain of CYP2D6 (P10635 whole entry): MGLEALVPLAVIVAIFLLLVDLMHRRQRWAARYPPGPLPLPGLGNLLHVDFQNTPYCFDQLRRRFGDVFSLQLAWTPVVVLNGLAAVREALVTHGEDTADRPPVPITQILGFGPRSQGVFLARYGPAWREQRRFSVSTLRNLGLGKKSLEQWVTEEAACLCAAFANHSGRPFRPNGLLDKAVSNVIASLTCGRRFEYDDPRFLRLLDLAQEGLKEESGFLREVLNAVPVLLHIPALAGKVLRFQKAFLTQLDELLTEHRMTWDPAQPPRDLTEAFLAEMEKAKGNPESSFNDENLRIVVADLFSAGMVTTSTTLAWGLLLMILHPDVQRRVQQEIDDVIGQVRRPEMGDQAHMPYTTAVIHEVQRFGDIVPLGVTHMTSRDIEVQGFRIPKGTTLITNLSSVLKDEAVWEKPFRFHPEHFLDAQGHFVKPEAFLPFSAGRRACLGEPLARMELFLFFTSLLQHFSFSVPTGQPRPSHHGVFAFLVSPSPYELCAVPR
Chain of CYP2C9 (P11712 whole entry): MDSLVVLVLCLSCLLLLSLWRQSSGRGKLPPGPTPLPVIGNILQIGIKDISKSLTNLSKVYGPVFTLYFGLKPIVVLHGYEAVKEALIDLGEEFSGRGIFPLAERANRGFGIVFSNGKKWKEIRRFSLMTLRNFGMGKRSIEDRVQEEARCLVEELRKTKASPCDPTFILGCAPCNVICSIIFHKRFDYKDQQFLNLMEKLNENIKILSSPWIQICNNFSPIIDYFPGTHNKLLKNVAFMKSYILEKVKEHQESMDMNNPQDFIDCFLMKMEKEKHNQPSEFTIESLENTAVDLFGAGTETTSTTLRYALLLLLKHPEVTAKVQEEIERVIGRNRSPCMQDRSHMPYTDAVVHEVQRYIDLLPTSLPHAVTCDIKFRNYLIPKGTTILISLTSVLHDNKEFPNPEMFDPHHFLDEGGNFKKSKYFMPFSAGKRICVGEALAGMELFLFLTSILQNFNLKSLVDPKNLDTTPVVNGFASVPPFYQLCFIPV
Chain of α7 (P36544 23-502): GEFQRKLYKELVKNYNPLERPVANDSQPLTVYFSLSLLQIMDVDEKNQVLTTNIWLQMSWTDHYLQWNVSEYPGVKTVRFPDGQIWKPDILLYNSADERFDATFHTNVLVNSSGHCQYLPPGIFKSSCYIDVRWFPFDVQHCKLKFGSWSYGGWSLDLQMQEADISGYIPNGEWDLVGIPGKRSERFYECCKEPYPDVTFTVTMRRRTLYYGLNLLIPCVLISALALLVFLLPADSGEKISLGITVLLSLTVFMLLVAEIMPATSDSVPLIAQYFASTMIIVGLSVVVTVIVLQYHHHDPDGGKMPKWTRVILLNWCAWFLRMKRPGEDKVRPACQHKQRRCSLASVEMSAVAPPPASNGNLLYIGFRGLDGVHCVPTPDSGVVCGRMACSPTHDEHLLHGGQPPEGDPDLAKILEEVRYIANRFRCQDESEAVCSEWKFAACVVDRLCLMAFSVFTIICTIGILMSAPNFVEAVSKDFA

SMILES: CN1[C@@H]2CC[C@H]1C[C@@H](OC(=O)c1c[nH]c3cc(F)ccc13)C2 [Compound C41, (1R,3R,5S)-8-methyl-8-azabicyclo[3.2.1]octan-3-yl 6-fluoro-1H-indole-3-carboxylate]
- Secondary Screen (CHO-7W) sAPPα ([1]; ↑ increase): ↑>20%
- Secondary Screen (CHO-7W) sAppα/Aβ ([1]; ↑ increase of ratio): ↑>50%
- Secondary Screen (CHO-7W) Aβ1-42 ([1]; ↓ decrease): ↓>20%
- pIC50 (CYP2C9): < 4.52
- inhibition at 10 µM (CYP2C9; human): 11.4%
- inhibition at 30 µM (CYP2C9; human): 21.6%
- Aβ1-42 levels in vivo (AD model mouse): did not change
- Aβ40/42 ratio in vivo (AD model mouse): not changed
- sAPPα in vivo (AD model mouse): increased significantly
- sAPPα/Aβ1-42 ratio in vivo (AD model mouse): not increased
- sAPPα/sAPPβ ratio in vivo (AD model mouse): significantly greater increase with C41 than F03
- sAPPβ in vivo (AD model mouse): greater decrease in sAPPβ than F03
- short-term working object memory (novel object preference) (AD model mouse): approximately 85 % of NTg level
- spatial memory, novel location recognition test (AD model mouse): improved spatial memory
- pIC50 (CYP2D6): < 4.52
- inhibition at 10 µM (CYP2D6; human): 19.9%
- inhibition at 30 µM (CYP2D6; human): 36.1%
- acute toxicity finding ([2]; oral 450 mg/kg, likely due to the corn syrup vehicle): some dilation of the vessels on the surface of the intestine
- concentration at 24 h ([2]; po, 450 mg/kg): 115 ng/mL
- concentration at 24 h ([2]; oral 450 mg/kg, 24 hours post-dosing, read-out: brain levels): 2920 ng/g
- microsomal CLint at 1 μM (in vitro; dog, microsomes, NADPH-Dependent CLint): 45.7 µL/min/mg
- half-life at 1 μM (in vitro; dog, microsomes, NADPH-Dependent T1/2): 0.843 h
- microsomal CLint at 1 μM (in vitro; dog, microsomes, NADPH-Free CLint): < 9.6 µL/min/mg
- half-life at 1 μM (in vitro; dog, microsomes, NADPH-Free T1/2): > 4 h
- Plasma protein binding (in vitro; human): 74.3 (human)
- recovery (in vitro; human): 115%
- half-life (in vitro; human, microsomes): > 4 h
- half-life at 1 μM (in vitro; human, microsomes): > 4 h
- microsomal CLint at 1 μM (in vitro; human, microsomes): < 9.6 µL/min/mg
- NADPH-Free CLint (in vitro; human, microsomes, 1 μM): <9.6 µL/min/mg
- NADPH-Free T1/2 (in vitro; human, microsomes, 1 μM): >4 h
- Mean Plasma Fraction Bound (in vitro; human, plasma): 74.3%
- fraction unbound (in vitro; human, plasma): 0.257
- microsomal CLint at 1 μM (in vitro; rat, microsomes, NADPH-Dependent CLint): 187 µL/min/mg
- half-life at 1 μM (in vitro; rat, microsomes, NADPH-Dependent T1/2): 0.207 h
- microsomal CLint at 1 μM (in vitro; rat, microsomes, NADPH-Free CLint): < 9.6 µL/min/mg
- half-life at 1 μM (in vitro; rat, microsomes, NADPH-Free T1/2): > 4 h
- half-life (S9 stability, dog): 0.668 h
- synaptic load / synaptic density in hippocampus (AD mouse model): restore synaptic density; also recorded: restored synaptic load
- efficacy in dose-response studies (AD model mice; mice): Efficacy was seen
- efficacy in 4-week standard oral study (AD model mice; mice, oral, 4 weeks): Efficacy was seen
- efficacy in 12-week study (AD model mice; old AD model mice with advanced pathology): efficacy was seen
- Oral availability (in vivo): about 100%
- bioavailability (in vivo): ~98%
- AUC (0-t) (in vivo; iv): AUC (0-t) ng-min/g = 400605.0
- AUC(0-t) (in vivo; iv): 330 ng·h/mL
- Clearance (CL) (in vivo; iv): Clearance (CL) g/min/Kg = 0.006.
- Kp at 0.5 h (in vivo; iv): 8
- Volume of distribution steady state (in vivo; iv): g/Kg = 2.9.
- clearance (in vivo; iv): 112 mL/min/kg
- AUC (in vivo; iv, 2.5 mg/kg): 373 ng·h/mL
- MRT (in vivo; iv, 2.5 mg/kg, MRT): 6.63 h
- Cmax (in vivo; iv, Cmax): 629 ng/g
- Cmax (in vivo; iv, Cmax plasma): 564 ng/mL
- MRT (in vivo; iv, Mean residence time (MRT)): 6.64 h
- MRT (in vivo; iv, Mean residence time (MRT) area): 8.33 h
- AUC (0-t) (in vivo; po): AUC (0-t) ng-min/g = 793672.5
- AUC(0-t) (in vivo; po): 1970 ng·h/mL
- Clearance (CL) (in vivo; po): Clearance (CL) g/min/Kg = 0.087.
- T1/2 elimination (in vivo; po): T1/2 elimination = 154.022 min.
- clearance (in vivo; po): 84 mL/min/kg
- time of peak (in vivo; po): 8 h
- AUC (in vivo; po, 10 mg/kg): 1970 ng·h/mL
- MRT (in vivo; po, 10 mg/kg, MRT): 21.7 h
- Cmax (in vivo; po, Cmax): 3250 ng/g
- Cmax (in vivo; po, Cmax plasma): 150 ng/mL
- half-life (in vivo; po, T1/2 elimination): 2.41 h
- Tmax (in vivo; po, Tmax): 6.33 h
- Tmax (in vivo; po, Tmax oral): 8 h
- half-life (S9 stability, rat): 0.363 h
- Target α7 (α7): 1100 nM
- Metabolic Half-Life Monkey S9 (S9 stability, monkey): >1 h
- half-life (S9 stability, monkey): > 1 h
- Metabolic Half-Life Mouse S9 (S9 stability, mouse): >1 h
- half-life (S9 stability, mouse): > 1 h
- profile in panel binding test / activity in broad screening panel [3]: clean profile; also recorded: Overall clean
- Metabolic Half-Life Guinea Pig S9 (S9 stability, guinea pig): >1 h
- half-life (S9 stability, guinea pig): > 1 h
